Results: patent publication US20140349955A1, “USE OF FLUORINE-CONTAINING WATER SOLUBLE PLATINUM COMPLEX IN PREPARING DRUGS FOR PREVENTION AND TREATMENT OF CANCERS” (GUDUI BIOPHARMA TECHNOLOGY INC., priority 2011, published 2014)

What was measured:
Type in all cases: cell-based
Conditions in all cases: 96 h, read-out: IC50 value in human tumor cells
A549 = experiment: MTS cytotoxicity test, A549
Experimental: (§1) Containing 10% bovine fetal serum, 1 mM of sodium pyruvate, 2 mM of L-glutamine, 50 U/mL of penicillin, 50 μg/mL of streptomycin
(§2) Human tumor cells: dul45-human prostate cancer; MCF-7-human breast cancer; SK0V3-human ovarian carcinoma, HT-29-human colon cancer; A549-human non-small cell lung cancer (adenocarcinoma), H460-human non-small cell lung cancer (large cell carcinoma), and animal tumor cells: L1210-mice leukemia cells used in the following activity test experiments were all purchased from Shanghai An Yan Commercial Trade Co., Ltd.
(§3) MTS test method was used in cytotoxicity assay. The tumor cells of logarithmic phase were collected, and then the concentration of cell suspension was adjusted, 100 μL of the cell suspension was added to each well, the cells were placed at 1000-10000 cells/well (edge well filled with sterile PBS). Cells were incubated at 37° C. with 5% CO2 to make cell monolayer overspread the bottom of each well (96-well flat-bottomed microplate). 100 μL of different concentrations of the test compounds was added to each well. Each condition was measured in five replicates. The microplate was incubated at 37° C. with 5% CO2 for 96 h and checked with inverted microscope. MTS working reagent: To 2 mL of MTS (2 mg/mL, prepared by DPBS) was added 100 μL of PMS (1 mg/mL, prepared by DPBS). The cell culture medium was discarded after centrifugation, the cell culture plate was carefully washed 2-3 times with PBS. Before detecting the absorbance value (OD), to each sample containing well was added 100 μL of cell culture medium, then 20 μL of MTS working reagent was added. After incubation at 37° C. with 5% CO2 for 2 h, the OD (optical density) value was detected at 490 nm.
(§4) Control group: the conditions are the same as the above without adding the active ingredient of antitumor agents, and the OD value was detected at 490 nm on the end of the experiment.
(§5) The cell inhibiting rate of the drugs to tumor cell growth was calculated according to the following formula:
(§6) 1) Cell viability (%)=OD of treated group/OD of control group×100%
(§7) 2) The cell viabilities under the different drug concentrations were determined, and then plotted against drug concentration. The IC50 value is the corresponding concentration in the obtained curve when the cell viability was 50%.

DU145 = experiment: MTS cytotoxicity test, DU145
Experimental: as §1, §2, §3, §4, §5, §6, §7

HT29 = experiment: MTS cytotoxicity test, HT29
Experimental: as §1, §2, §3, §4, §5, §6, §7

MCF7 = experiment: MTS cytotoxicity test, MCF7
Experimental: as §1, §2, §3, §4, §5, §6, §7

SKOV3 = experiment: MTS cytotoxicity test, SKOV3
Experimental: as §1, §2, §3, §4, §5, §6, §7

H460 = experiment: MTS cytotoxicity test, H460
Experimental: as §1, §2, §3, §4, §5, §6, §7

Question: What does the source list for O=C1[O][Pt]2([NH]C3CCCCC3[NH]2)[O]C(=O)C1(F)CCCOC1OC(CO)C(O)C(O)C1O (stereo not drawn) [Complex 6]?
Answer: IC50 (A549): 21.8 µM; IC50 (DU145): 9.96 µM; IC50 (HT29): 2300 nM; IC50 (MCF7): 2040 nM; IC50 (SKOV3): 22.2 µM; IC50 (H460): 22.4 µM

Question: What does the source list for O=C1[O][Pt]2([NH][C@@H]3CCCC[C@H]3[NH]2)[O]C(=O)C1(F)CCCOC1O[C@H](CO)[C@@H](O)[C@H](O)[C@H]1O (stereo partly drawn) [Complex 3]?
Answer: IC50 (A549): 0.855 µM; IC50 (DU145): 6.6 µM; IC50 (HT29): 2010 nM; IC50 (MCF7): 923 nM; IC50 (SKOV3): 10.1 µM; IC50 (H460): 10.1 µM

Question: O=C1[O][Pt]2([NH]C3CCCCC3[NH]2)[O]C(=O)C1(F)CCOC1OC(CO)C(O)C(O)C1O (stereo not drawn) [Complex 8] was tested. Which IC50 (A549) did it give?
Answer: 5.12 µM

Question: What about the IC50 (DU145) of the same compound?
Answer: 5.11 µM

Question: What about the IC50 (HT29) of the same compound?
Answer: 1070 nM

Question: And the IC50 (MCF7)?
Answer: 5100 nM

Question: And the IC50 (SKOV3)?
Answer: 49.4 µM

Question: What about the IC50 (H460) of the same compound?
Answer: 10 µM
